From PubChem BioAssay (NCI)
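Method: 48-hour compound exposure of cells in 96-well plates, five concentrations, linear interpolation of endpoints. TGI marks complete inhibition of growth.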

Tests used:
Test in all cases: growth of human tumour cells (NCI), 48 h
[1] = tested on: BT-549 breast
[2] = tested on: SF-539 CNS
[3] = tested on: HCT-116 colon
[4] = tested on: MCF7 breast
[5] = tested on: RPMI-8226 leukemia
[6] = tested on: HOP-62 NSCLC
[7] = tested on: HOP-92 NSCLC
[8] = tested on: K-562 leukemia
[9] = tested on: U251 CNS
[10] = tested on: PC-3 prostate
[11] = tested on: UACC-62 melanoma
[12] = tested on: NCI-H226 lung
[13] = tested on: HCT-15 colon
[14] = tested on: LOX IMVI melanoma
[15] = tested on: HT29 colon
[16] = tested on: SW-620 colon
[17] = tested on: TK-10 renal
[18] = tested on: SK-MEL-28 melanoma
[19] = tested on: MOLT-4 leukemia
[20] = tested on: MDA-N
[21] = tested on: OVCAR-4 ovarian
[22] = tested on: SF-268 CNS
[23] = tested on: MDA-MB-231 breast
[24] = tested on: HS 578T breast
[25] = tested on: A549 NSCLC
[26] = tested on: DU-145 prostate
[27] = tested on: SK-OV-3 ovarian
[28] = tested on: RXF 393 renal
[29] = tested on: SN12C renal
[30] = tested on: OVCAR-8 ovarian
[31] = tested on: UO-31 renal
[32] = tested on: EKVX NSCLC
[33] = tested on: SNB-75 CNS
[34] = tested on: A498 renal
[35] = tested on: UACC-257 melanoma
[36] = tested on: COLO 205 colon
[37] = tested on: NCI-H522 lung
[38] = tested on: SF-295 CNS
[39] = tested on: NCI/ADR-RES ovarian
[40] = tested on: SK-MEL-5 melanoma
[41] = tested on: ACHN renal
[42] = tested on: OVCAR-3 ovarian
[43] = tested on: SR leukemia
[44] = tested on: HCC-2998 colon
[45] = tested on: OVCAR-5 ovarian
[46] = tested on: MDA-MB-435
[47] = tested on: 786-0 renal
[48] = tested on: CAKI-1 renal
[49] = tested on: KM12 colon
[50] = tested on: NCI-H460 lung
[51] = tested on: T-47D breast
[52] = tested on: M14 melanoma
[53] = tested on: SK-MEL-2 melanoma
[54] = tested on: NCI-H23 lung
[55] = tested on: SNB-19 CNS
[56] = tested on: MALME-3M melanoma
[57] = tested on: CCRF-CEM leukemia
[58] = tested on: IGROV1 ovarian
[59] = tested on: HL-60(TB) leukemia

Which results are given for `Nc1ccc2cc3[nH]c4cc(N)ccc4c3nc2c1`?
TGI [1]: 3.15 µM; TGI [2]: 1.4 µM; TGI [3]: 0.456 µM; TGI [4]: 1.7 µM; TGI [5]: > 100 µM; TGI [6]: 1.13 µM; TGI [7]: 0.737 µM; TGI [8]: > 22.6 µM; TGI [9]: 2.37 µM; TGI [10]: 1.49 µM; TGI [11]: 0.708 µM; TGI [12]: 1.8 µM; TGI [13]: 1.47 µM; TGI [14]: 0.911 µM; TGI [15]: 1.48 µM; TGI [16]: 0.845 µM; TGI [17]: 7.98 µM; TGI [18]: 0.317 µM; TGI [19]: 6.76 µM; TGI [20]: 1.13 µM; TGI [21]: 3.02 µM; TGI [22]: 1.8 µM; TGI [23]: 2.09 µM; TGI [24]: 2.57 µM; TGI [25]: 3.38 µM; TGI [26]: 2.4 µM; TGI [27]: 2.03 µM; TGI [28]: 1.98 µM; TGI [29]: 1.17 µM; TGI [30]: 1.69 µM; TGI [31]: 0.659 µM; TGI [32]: 1.93 µM; TGI [33]: 1.33 µM; TGI [34]: 1.24 µM; TGI [35]: 0.761 µM; TGI [36]: 1.27 µM; TGI [37]: 64.6 µM; TGI [38]: 1.37 µM; TGI [39]: 2.34 µM; TGI [40]: 0.923 µM; TGI [41]: 0.257 µM; TGI [42]: 2.69 µM; TGI [43]: 0.66 µM; TGI [44]: 0.976 µM; TGI [45]: 1.83 µM; TGI [46]: 1.23 µM; TGI [47]: 1.39 µM; TGI [48]: 0.636 µM; TGI [49]: 1.7 µM; TGI [50]: 0.548 µM; TGI [51]: 4.33 µM; TGI [52]: 1.36 µM; TGI [53]: 1.47 µM; TGI [54]: 0.893 µM; TGI [55]: 3.76 µM

How did the TGI [1] turn out when `O=C1c2ccccc2C(=O)c2c1ccc(C(=O)O)c2-c1ccc2ccccc2c1` was run?
The TGI was 68.3 µM.

And the TGI [2]?
Its TGI is 50.4 µM.

And the TGI [3]?
The TGI was 47.7 µM.

And the TGI [4]?
Its TGI is 81.8 µM.

And the TGI [56]?
The TGI was 70.7 µM.

And the TGI [5]?
Its TGI is 83.8 µM.

What about the TGI [6] of the same molecule?
The TGI was greater than 100 µM.

And the TGI [8]?
Its TGI is 85.7 µM.

What about the TGI [57] of the same molecule?
Its TGI is 52.4 µM.

What about the TGI [9] of the same molecule?
Its TGI is 55.4 µM.

What about the TGI [10] of the same molecule?
The TGI was 72.4 µM.

And the TGI [11]?
Its TGI is 37.8 µM.

What about the TGI [12] of the same molecule?
The TGI was 79.6 µM.

What about the TGI [58] of the same molecule?
The TGI was 68.3 µM.

And the TGI [13]?
The TGI was 56.6 µM.

What about the TGI [14] of the same molecule?
Its TGI is 41.6 µM.

What about the TGI [15] of the same molecule?
Its TGI is greater than 100 µM.

What about the TGI [16] of the same molecule?
Its TGI is 89.5 µM.

And the TGI [17]?
Its TGI is greater than 100 µM.

And the TGI [18]?
Its TGI is greater than 100 µM.

And the TGI [19]?
The TGI was 53 µM.

And the TGI [20]?
The TGI was 79.2 µM.

And the TGI [21]?
Its TGI is greater than 100 µM.

What about the TGI [22] of the same molecule?
The TGI was 98.1 µM.

What about the TGI [23] of the same molecule?
The TGI was 73.9 µM.

And the TGI [24]?
Its TGI is 80.7 µM.

And the TGI [25]?
The TGI was greater than 100 µM.

What about the TGI [26] of the same molecule?
Its TGI is 46.6 µM.

What about the TGI [59] of the same molecule?
The TGI was 61.2 µM.

And the TGI [27]?
The TGI was greater than 100 µM.

What about the TGI [29] of the same molecule?
Its TGI is 88.8 µM.

And the TGI [30]?
The TGI was greater than 100 µM.

And the TGI [31]?
Its TGI is 83.3 µM.

And the TGI [32]?
The TGI was 81 µM.

What about the TGI [34] of the same molecule?
Its TGI is 85.5 µM.

And the TGI [35]?
Its TGI is greater than 100 µM.

And the TGI [36]?
Its TGI is 30.1 µM.

And the TGI [37]?
Its TGI is 59.3 µM.

What about the TGI [38] of the same molecule?
The TGI was 81 µM.

And the TGI [39]?
Its TGI is greater than 100 µM.

And the TGI [40]?
The TGI was 39.4 µM.

What about the TGI [41] of the same molecule?
Its TGI is greater than 100 µM.

What about the TGI [42] of the same molecule?
The TGI was 65.3 µM.

And the TGI [43]?
The TGI was 51.6 µM.

And the TGI [44]?
The TGI was greater than 100 µM.

And the TGI [45]?
The TGI was 59.3 µM.

And the TGI [46]?
Its TGI is 60 µM.

What about the TGI [47] of the same molecule?
Its TGI is greater than 100 µM.

What about the TGI [48] of the same molecule?
The TGI was greater than 100 µM.

What about the TGI [49] of the same molecule?
Its TGI is greater than 100 µM.

And the TGI [50]?
Its TGI is greater than 100 µM.

What about the TGI [51] of the same molecule?
Its TGI is 18.1 µM.

And the TGI [52]?
Its TGI is 54.1 µM.

And the TGI [53]?
The TGI was 48.5 µM.

What about the TGI [54] of the same molecule?
The TGI was 46.5 µM.

And the TGI [55]?
The TGI was greater than 100 µM.
